Earlier results in patent publication US8097636B2, “Heterocyclic derivatives as modulators of ion channels” (Vertex Pharmaceuticals Incorporated, priority 2007, dated 2012).

Target: NaV1.3 (Homo sapiens, UniProt Q9NY46)
Conditions: read-out: TTX IC50

Chain of NaV1.3 (Q9NY46 whole entry, looked up): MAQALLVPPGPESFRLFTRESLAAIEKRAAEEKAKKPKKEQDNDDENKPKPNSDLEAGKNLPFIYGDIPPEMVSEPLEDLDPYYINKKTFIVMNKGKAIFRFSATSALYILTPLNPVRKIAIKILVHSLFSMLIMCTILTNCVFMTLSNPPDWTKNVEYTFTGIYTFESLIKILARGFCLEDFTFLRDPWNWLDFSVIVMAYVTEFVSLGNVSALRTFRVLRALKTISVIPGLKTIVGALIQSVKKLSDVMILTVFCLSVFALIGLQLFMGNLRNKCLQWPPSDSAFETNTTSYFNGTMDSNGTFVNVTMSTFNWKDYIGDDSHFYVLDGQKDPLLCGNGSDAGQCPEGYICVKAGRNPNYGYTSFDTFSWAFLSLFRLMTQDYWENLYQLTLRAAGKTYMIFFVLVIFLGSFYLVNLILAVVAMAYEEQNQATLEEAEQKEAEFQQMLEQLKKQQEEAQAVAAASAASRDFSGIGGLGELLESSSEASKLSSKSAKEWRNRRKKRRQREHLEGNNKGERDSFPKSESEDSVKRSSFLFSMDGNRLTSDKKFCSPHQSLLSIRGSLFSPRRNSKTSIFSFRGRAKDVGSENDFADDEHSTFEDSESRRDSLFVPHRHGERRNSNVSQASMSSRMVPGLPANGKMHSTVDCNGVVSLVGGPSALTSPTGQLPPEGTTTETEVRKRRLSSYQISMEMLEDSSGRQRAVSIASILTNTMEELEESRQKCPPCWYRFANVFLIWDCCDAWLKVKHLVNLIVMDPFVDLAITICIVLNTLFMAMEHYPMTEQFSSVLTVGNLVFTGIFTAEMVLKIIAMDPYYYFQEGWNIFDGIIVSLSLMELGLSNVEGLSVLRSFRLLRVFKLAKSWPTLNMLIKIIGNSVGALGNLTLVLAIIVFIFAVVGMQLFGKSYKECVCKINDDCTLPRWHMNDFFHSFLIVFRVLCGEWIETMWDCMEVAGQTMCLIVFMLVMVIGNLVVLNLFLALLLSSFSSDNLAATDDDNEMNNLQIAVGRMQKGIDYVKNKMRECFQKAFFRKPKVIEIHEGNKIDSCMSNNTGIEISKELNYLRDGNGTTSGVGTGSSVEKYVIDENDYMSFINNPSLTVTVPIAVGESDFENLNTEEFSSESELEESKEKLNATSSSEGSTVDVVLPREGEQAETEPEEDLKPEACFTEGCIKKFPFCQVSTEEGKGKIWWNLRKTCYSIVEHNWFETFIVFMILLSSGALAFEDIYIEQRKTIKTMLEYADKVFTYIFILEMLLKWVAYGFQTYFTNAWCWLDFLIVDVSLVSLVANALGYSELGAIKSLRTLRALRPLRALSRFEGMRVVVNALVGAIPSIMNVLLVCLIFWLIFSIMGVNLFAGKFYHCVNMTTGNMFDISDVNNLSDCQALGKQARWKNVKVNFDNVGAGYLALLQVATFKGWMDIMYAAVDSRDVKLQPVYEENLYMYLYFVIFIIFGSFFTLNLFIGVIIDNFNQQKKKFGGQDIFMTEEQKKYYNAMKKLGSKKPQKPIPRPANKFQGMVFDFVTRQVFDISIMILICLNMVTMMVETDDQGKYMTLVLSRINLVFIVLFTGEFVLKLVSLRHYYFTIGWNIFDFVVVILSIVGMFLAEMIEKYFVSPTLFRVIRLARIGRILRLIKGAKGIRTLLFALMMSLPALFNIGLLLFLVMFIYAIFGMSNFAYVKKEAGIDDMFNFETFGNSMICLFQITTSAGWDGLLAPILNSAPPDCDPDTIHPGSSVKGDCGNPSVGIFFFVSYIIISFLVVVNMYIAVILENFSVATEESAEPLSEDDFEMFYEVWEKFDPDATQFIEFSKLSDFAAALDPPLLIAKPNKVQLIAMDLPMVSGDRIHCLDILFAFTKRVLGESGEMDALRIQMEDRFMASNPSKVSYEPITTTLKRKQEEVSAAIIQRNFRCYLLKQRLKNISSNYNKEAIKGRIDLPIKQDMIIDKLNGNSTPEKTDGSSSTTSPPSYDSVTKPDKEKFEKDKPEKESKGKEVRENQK

For `NC1=N[C@H](O)[C@H]2[C@H]3O[C@]4(O)O[C@@H]([C@@H](O)[C@@]2(N1)[C@@H]4O)[C@]3(O)CO` [TTX, tetrodotoxin], the IC50 is given as 15 nM.
